According to patent US5098613A, “Anti-inflammatory agents” (Eli Lilly and Company, priority 1990, dated 1992):
Structures can show the parent of a compound that is named as a salt.

Assays:
[1] = target: T1, leukotriene B4 specific receptor on the membrane of human neutrophils (Homo sapiens, UniProt Q15722); test: Inhibition of Binding of ^3 H-LTB4 to Peripheral Human Neutrophils; details: 4° C., 10 minutes; for inhibition at 10 µM: drug concentration 10^-5 M, read-out: LTB4 Binding Inhibition; for inhibition at 1 µM: drug concentration 10^-6 M
T1 construct: incubating neutrophils (1×10^7 cells) with 0.1-0.2 nM ^3 H-LTB4; endogenous in cells; host or cells: human peripheral blood neutrophils (buffy coats of two blood donors)
T1 sequence (Q15722 whole entry): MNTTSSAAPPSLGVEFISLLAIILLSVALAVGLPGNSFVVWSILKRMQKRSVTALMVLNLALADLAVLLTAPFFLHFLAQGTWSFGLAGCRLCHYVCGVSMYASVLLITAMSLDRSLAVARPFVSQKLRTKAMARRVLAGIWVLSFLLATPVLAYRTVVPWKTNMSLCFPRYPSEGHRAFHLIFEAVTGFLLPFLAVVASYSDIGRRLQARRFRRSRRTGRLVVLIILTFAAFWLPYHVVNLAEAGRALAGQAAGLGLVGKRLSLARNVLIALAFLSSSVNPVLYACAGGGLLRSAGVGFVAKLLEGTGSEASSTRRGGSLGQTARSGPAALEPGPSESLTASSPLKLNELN
Description: The effectiveness of compounds to inhibit the binding of leukotriene B4 to a specific receptor on the membrane of human neutrophils was measured by using an adaptation of a radio-ligand binding assay developed by Goldman and Goetzl, J. Immunol., 129, 1600 (1982). Other investigators have developed similar assays (see, e.g., Kreisle, et al., J. Exp. Med., 157, 628 (1983) and Lin, et al., Prostaglandins, 28, 837 (1984)).
Cells used in the assay were isolated by standard techniques of centrifugation on Ficol-Hypaque, dextran 70 sedimentation and hypotonic lysis. The following procedure was used. Freshly-prepared buffy coat layers from two individuals were obtained from a local blood donor center. The cells were mixed and diluted to 484 ml. with phosphate buffered saline containing heparin (10 units/ml) and heat-inactivated calf serum (5%). This was divided into 20 ml. aliquots and the aliquots layered on top of Ficoll-Paque (12 ml.). The material was then centrifuged at 500 g. for 40 minutes at room temperature. The resulting upper layer of platelets and mononuclear cells was discarded. The lower layer containing erythrocytes and neutrophils was retained. Buffer was added (1 ml. per 4 ml. of lower layer) and the suspension mixed. For each milliliter of this mixture, 0.33 ml. of 6% Macrodex was added. After stirring, the cels were allowed to sediment for 1 hour at 37° C. The resulting erythrocyte pellet was discarded and the neutrophil enriched supernatant fluid centrifuged at 500 g. for 10 minutes at 4° C. Erythrocytes still present in this cell pellet were lysed by incubating the cells with 5-8 ml. ice-cold distilled water for 30-45 seconds. Subsequently, the volume was made up to 50 ml. by addition of ice-cold buffer and the cells resuspended. The suspension was then centrifuged at 300 g. for 10 minutes at 4° C. The cells were finally resuspended at a cell density of 2×10^7 cells/ml in the assay buffer. This buffer Consisted of Hanks' balanced salt solution and 0.1% ovalbumin (pH 7.3).
The radio-ligand binding assay was conducted by incubating neutrophils (1×10^7 cells) with 0.1-0.2 nM ^3 H-LTB4 (sp. act. 150-220 Curies/mmol) and test compound (1×10^-5 M and 1×10^-6 M) for 10 minutes at 4° C. The amount of bound ^3 H-LTB4 was then measured and compared with the amount bound in the absence of test compound. The assay was carried out in microcentrifuge tubes by adding first 10 μl test compound dissolved in DMSO, followed by adding 20 μl ^3 H-LTB4 diluted in assay buffer, and finally adding 500 μl of the cell suspension pension. At the end of the 10 minutes incubation, 300 μl of a mixture of dibutyl and dinonyl phthalate (7:2) were added and the tubes centrifuged for 2 minutes in a microcentrifuge. The radioactivity bound to the cell pellet was measured by scintillation spectroscopy. Appropriate corrections for nonspecific bonding of ^3 H-LTB4 were made.

[2] = system: IL-1 induced T-cell Proliferation; test: Anti IL-1 Activity (Thymocyte Assay): suppression of IL-1 induced T-cell proliferation; format: cell-based, C3H/HeJ male mice; details: mouse thymocytes, 48 hours, read-out: Percent T-cell suppression; for inhibition at 1 µg/mL: 1 mcg/ml; for inhibition at 10 µg/mL: 10 mcg/ml
Description: Thymus from 3-4 week old C3H/HeJ male mice and were passed through a #100 mesh screen to make a single cell suspension. The cells were suspended in RPMI-1640 supplemented with 2×10^-5 M 2-mercaptoethanol, 3% fetal calf serum, and 1% Penicillin/Streptomycin. The cell suspension was placed in a tissue culture flask and incubated at 37° C. in 5% carbon dioxide in air for 1-2 hours. The thymocytes were decanted, leaving adherent cells behind, and the liquid was centrifuged at 1400 rpm for 10 minutes. After decanting the supernatant, the cells were resuspended and counted with a hemocytometer. The density was adjusted to […]. Fifty μ1 of the suspension were added to each well of a 96-well microtiter plate, followed by the addition of 25 μl of PHA and 25 μl IL-1 (1:25 dilution of a 10 mcg/ml stock solution) per well.
Each compound to be tested was dissolved in 30% DMSO/70% PBS to make a stock solution of 1 mg/ml. Fifteen μl of each compound were added to 300 μl of media in the serial dilution plate. Twenty-five μl of each drug were added to the test plate in quadruplicate wells across the plate. The plate was incubated at 37° C. in 5% carbon dioxide in air for 48 hours. The wells were pulsed with tritiated thymidine (5 μCi.well) for 4 hours before harvesting on a Skatron cell harvester. The filter discs were placed in mini-vials, scintillation fluid (Tol-Pop) was added, and the vials counted. The percent of counts for each vial compared with control samples wherein no compound was added (vehicles only) was determined for each compound and are reported as Table III below as the percent T-ce1 suppression.

[3] = system: Arachidonic Acid Induced Ear Edema; test: Arachidonic Acid-Induced Ear Edema Assay; format: in vivo, Female BALB/C mice; details: Mus musculus, 1 h, topical, one hour prior to arachidonic acid, read-out: Percent Inhibition of Ear Swelling; for inhibition in vivo at 0.05 %: 0.05% in ethanol gel; for inhibition in vivo at 1 %: 1% in ethanol gel
Description: Female BALB/C mice (Charles River; 18-20 rams) were divided into groups of five. Arachidonic acid was dissolved in ethanol at a concentration of 200 mg/ml. Each mouse received 2 mg/ear of arachidonic acid on the inner surface of the right ear. This dose of phlogistic was applied by an automatic pipette in 10 mcl volumes. The left ear (control) received ethanol. Drugs were applied topically in an ethanol-based gel to the entire outer surface of both ears one hour prior to arachidonic acid application. Edema was measured by the increase in ear weight. An hour after arachidonic acid solution or vehicle was applied, an ear sample of 7 mm in diameter was obtained from both ears. Ear edema was calculated by subtracting the […], dividing by the weight of the left/Control ear, and averaging the results for each group of mice according to compound and concentration.

inhibition at 10 µM [1] [%] | inhibition at 1 µM [1] [%] | Structure (SMILES) | inhibition at 1 µg/mL [2] [%] | inhibition at 10 µg/mL [2] [%] | inhibition in vivo at 0.01 % ([3]; 0.01% in ethanol gel) [%] | inhibition in vivo at 0.05 % [3] [%] | inhibition in vivo at 1 % [3] [%]
0 | 0 | CCCc1cc(C(C)=O)c(O)cc1OCCCCC(=O)O [Example 132, 5-(4-Acetyl-5-hydroxy-2-propylphenoxy)pentanoic acid] | 15 | 59 | – | – | –
52 | 8 | CCc1cc(C(C)=O)c(OC)cc1OCc1cccc(C#N)c1 [Example 114] | – | – | 44 | 40 | –
35 | 13 | CCCc1cc(C(C)=O)c(Cl)cc1OCCCCC#N [Example 15, 5-(4-Acetyl-5-chloro-2-propylphenoxy)-pentanenitrile] | 33 | 91 | – | – | –
16 | 8 | C=CCc1cc(C(C)=O)c(O)cc1OCCCCCCCC [Example 38, 4-(Octyloxy)-5-allyl-2-hydroxyacetophenone] | -8 | 28 | – | – | –
10 | 6 | CC(=O)c1cc(CC(C)O)c(OCCCCC#N)cc1O (centres unmarked) [Example 125, 5-[4-Acetyl-5-hydroxy-2-(2-hydroxypropyl)-phenoxy]pentanenitrile] | 30 | 85 | – | – | –
42 | 15 | CCc1cc(C(C)=O)c(O)cc1OCc1cccc(Cl)c1 [Example 56, 4-(3-Chlorobenzyloxy)-5-ethyl-2-hydroxyacetophenone] | – | – | – | 6 | –
27 to 38 | 34 to 38 | C=CCc1cc(C(C)=O)c(O)cc1OCc1cccc(-c2nnn(C)n2)c1 [Example 121] | – | – | – | 0 | –
100 | 61 | CCc1cc(C(C)=O)c(O)cc1OCCCCCCC(=O)N(C)C [Example 98, 7-(4-Acetyl-2-ethyl-5-hydroxyphenoxy)-N,N-dimethylheptanamide] | 14 | 85 | – | – | 17
12 to 16 | 7 to 8 | C=CCc1cc(C(C)=O)c(OC)cc1OCCCCC#N [Example 115, 5-(4-Acetyl-5-methoxy-2-allylphenoxy)pentanenitrile] | 29 | 96 | – | – | –
10 | 6 | C=CCc1cc(C(=O)CCCCCCCCC)c(O)cc1OCCCCC#N [Example 107, 5-[5-Hydroxy-4-(1-oxodecyl)-2-allylphenoxy]pentanenitrile] | 47 | 26 | – | – | –
40 | 7 | CC(=O)c1cc(CO)c(OCCCCCCC#N)cc1O [Example 36, 7-[4-Acetyl-5-hydroxy-2-(hydroxymethyl)-phenoxy]heptanenitrile] | 15 | 75 | – | – | –
40 | 20 | CCc1cc(C(=O)c2cccc(C(=O)O)c2)c(O)cc1OCCCCC#N [Example 92] | 5 | 38 | – | – | –
78 | 38 | C=CCc1cc(C(C)=O)c(O)cc1OCCCCCCSC [Example 78, 2-Hydroxy-4-[6-(methylthio)hexyloxy]-5-allylaoetophenone] | – | – | – | – | 46
37 | 7 | CCCCc1cc(C(C)=O)c(O)cc1OCCCCC#N [Example 30, 5-(4-Acetyl-2-butyl-5-hydroxyphenoxy)-pentanenitrile] | 32 | 91 | – | – | –
58 | 23 | CCc1cc(C(C)=O)c(O)cc1OCc1cccc(SC)c1 [Example 59, 4-(3-Methylmercaptobenzyloxy)-5-ethyl-2-hydroxyacetophenone] | – | – | – | 0 | –
48 | 23 | CCc1cc(C(=O)c2ccccc2)c(O)cc1OCCCCC#N [Example 130, 5-(4-Benzoyl-2-ethyl-5-hydroxyphenoxy)pentane-nitrile] | 41 | 99 | – | – | –

Structure (SMILES) | inhibition at 10 µM [1] [%] | inhibition at 1 µM [1] [%] | inhibition at 1 µg/mL [2] [%] | inhibition at 10 µg/mL [2] [%] | inhibition in vivo at 0.01 % ([3]; 0.01% in ethanol gel) [%] | inhibition in vivo at 0.05 % [3] [%] | inhibition in vivo at 1 % [3] [%]
C=CCc1cc(C(C)=O)c(O)cc1OCCCCN(C)C [Example 76, 4-[4-(Dimethylamino)butoxy]-2-hydroxy-5-allylacetophenone hydrochloride] | 0 | 0 | 39 | 79 | – | – | –
C=CCc1cc(C(C)=O)c(O)cc1OCCCCc1nn[nH]n1 [Example 109, 2-Hydroxy-5-allyl-4-[4-(lH-tetrazol-5-yl)-butoxy]acetophenon] | 41 | 3 | 7 | 56 | – | – | –
CCc1cc(C(=O)CCCCC(=O)O)c(O)cc1OCCCCC#N [Example 90, 6-[(4-Cyanobutoxy)-5-ethyl-2-hydroxybenzene]-6-oxohexanoic acid] | 1 | -2 | 3 | 47 | – | – | –
CCc1cc(C(=O)c2ccccc2C(=O)O)c(O)cc1OCCCCC#N [Example 89, 2-[4-(4-Cyanobutoxy)-5-ethyl-2-hydroxybenzoyl]benzoic acid] | 11 | 15 | 9 | 39 | – | – | –
